Test results reported in US20100261734A1, “Methods of Treating Bladder Dysfunction Using Netupitant” (Helsinn Healthcare S.A., priority 2009, published 2010).
Where two headings read alike, the source gives them in different places.

Legend:
[1] = test system: acetic acid (AA)-induced overactive bladder (OAB); experiment: Cystometric parameters in acetic acid (AA)-induced overactive bladder (OAB) in anesthetized guinea-pigs; assay type: in vivo; conditions: for Maximal ICI (intercontraction interval) increase, % of variation from basal values: 0.2% AA bladder infusion, anesthetized guinea-pigs; for Effect on ICI (intercontraction interval): from 10 min up to 60 min post-administration, 0.2% AA
Excerpt: The effect of netupitant (N) was studied on cystometric parameters in acetic acid (AA)-induced overactive bladder (OAB) in anesthetized guinea-pigs. Results were compared with those obtained with a control and L-733,060 (L), another potent and selective NK1 receptor antagonist. Adult female guinea-pigs were anesthetized with urethane, and the jugular vein and urinary bladder were catheterized for drug administration and intravesical pressure recording, respectively. The urinary bladder was continuously infused with either saline or 0.2% AA. After 30 min stabilization, N, L or their vehicle (glucose 5%) were administered in separate animals (n=10 per group). Intercontraction interval (ICI, sec), and amplitude of micturition (AM, mmHg) were analyzed at 10, 20, 40 and 60 min post administration. For each dose, maximal effects were expressed as % of variation from respective basal values. ED50% (doses inducing a 50% increase in ICI) were calculated using linear regressions.

[2] = Pharmacokinetic profile of netupitant in humans after a single oral dose; assay type: in vivo; conditions: for Cl/F / Kel / tlag / AUC(0-inf) / AUC(0-t) / Cmax / Tmax / half-life / Vd/F: healthy volunteers, mean, N = 4; for AUC(0-inf) / AUC(0-t) / Cmax / Tmax / half-life / Vd/F: human, plasma; for Vd/F: read-out: Vz/F
Protocol: The pharmacokinetic profile of netupitant (N) in humans was examined in a randomised, double-blind, placebo controlled study comprising 5 dose groups (10, 30, 100, 300 and 450 mg) with 6 subjects in each group, of whom four received netupitant and two received placebo.

With `FC(F)(F)c1cc(CO[C@H]2CCCN[C@H]2c2ccccc2)cc(C(F)(F)F)c1` [L-733,060, reference compound] the “Maximal ICI (intercontraction interval) increase, % of variation from basal values” ([1]; 3 mg/kg i.v.) was “+40±10%”, the “Maximal ICI (intercontraction interval) increase, % of variation from basal values” ([1]; 10 mg/kg i.v.) was “+76±11%” and the “Maximal effect on amplitude of micturition (AM), % of variation from basal values” ([1]; 10 mg/kg, 10 min after administration) was −28±5%. The “Effect on amplitude of micturition (AM)” value ([1]; 10 mg/kg, p<0.05 versus basal values) was “decreased significantly AM”, the “Effect on ICI (intercontraction interval)” value [1] was “dose-dependently and significantly increased ICI” and the “ED50% (dose inducing a 50% increase in ICI)” value ([1]; i.v., calculated using linear regressions) was 5.13 mg/kg.
With `Cc1ccccc1-c1cc(N2CCN(C)CC2)ncc1N(C)C(=O)C(C)(C)c1cc(C(F)(F)F)cc(C(F)(F)F)c1` [netupitant, 2-[3,5-bis(trifluoromethyl)phenyl]-N,2-dimethyl-N-[4-(2-methylphenyl)-6-(4-methylpiperazin-1-yl)pyridin-3-yl]propanamide] the “Maximal ICI (intercontraction interval) increase, % of variation from basal values” ([1]; 0.1 mg/kg i.v.) was “+51±15%”, the “Maximal ICI (intercontraction interval) increase, % of variation from basal values” ([1]; 0.3 mg/kg i.v.) was “+44±8%” and the “Maximal ICI (intercontraction interval) increase, % of variation from basal values” ([1]; 1 mg/kg i.v.) was “+69±8%”. The “Maximal effect on amplitude of micturition (AM), % of variation from basal values” ([1]; 1 mg/kg, 20 min after administration) was −13±6%, the “Maximal ICI (intercontraction interval) increase, % of variation from basal values” ([1]; 3 mg/kg i.v.) was “+96±20%” and the ED50 ([1]; Cavia porcellus, iv, calculated using linear regressions, read-out: ED50% (dose inducing a 50% increase in ICI)) was 0.62 mg/kg. For the same compound, the “Potency relative to L in view of ED50% values” ([1]; N versus L) was “about 16 fold”, the “Effect on amplitude of micturition (AM)” value ([1]; doses 0.1-3 mg/kg) was “devoid of significant effect on AM” and the “Effect on ICI (intercontraction interval)” value [1] was “dose-dependently and significantly increased ICI”. It also gave a Cl/F ([2]; 10 mg oral) of 44.0 L/h, a Kel ([2]; 10 mg oral) of 0.0435 h⁻¹ and a tlag ([2]; 10 mg oral) of 1.88 h. For the same compound, the Cl/F ([2]; 30 mg oral) was 35.5 L/h, the Kel ([2]; 30 mg oral) was 0.027 h⁻¹ and the tlag ([2]; 30 mg oral) was 1.75 h. The Cl/F ([2]; 100 mg oral) was 22.1 L/h, the Kel ([2]; 100 mg oral) was 0.0139 h⁻¹ and the tlag ([2]; 100 mg oral) was 1.88 h. It also gave a Cl/F ([2]; 300 mg oral) of 12.6 L/h, a Kel ([2]; 300 mg oral) of 0.0154 h⁻¹ and a tlag ([2]; 300 mg oral) of 0.81 h. The Cl/F ([2]; 450 mg oral) was 10.6 L/h, the Kel ([2]; 450 mg oral) was 0.0124 h⁻¹ and the tlag ([2]; 450 mg oral) was 1.26 h. For the same compound, the AUC(0-inf) ([2]; 10 mg oral) was 233 ng·h/mL, the AUC(0-t) ([2]; 10 mg oral) was 140 ng·h/mL and the Cmax ([2]; 10 mg oral) was 8.76 ng/mL. For the same compound, the Tmax ([2]; 10 mg oral) was 5.75 h, the half-life ([2]; 10 mg oral) was 16 h and the Vd/F ([2]; 10 mg oral) was 1010 L. It also gave an AUC(0-inf) ([2]; 30 mg oral) of 995 ng·h/mL, an AUC(0-t) ([2]; 30 mg oral) of 870 ng·h/mL and a Cmax ([2]; 30 mg oral) of 36 ng/mL. For the same compound, the Tmax ([2]; 30 mg oral) was 5.76 h, the half-life ([2]; 30 mg oral) was 29.1 h and the Vd/F ([2]; 30 mg oral) was 1320 L. For the same compound, the AUC(0-inf) ([2]; 100 mg oral) was 4800 ng·h/mL, the AUC(0-t) ([2]; 100 mg oral) was 4360 ng·h/mL and the Cmax ([2]; 100 mg oral) was 168 ng/mL. For the same compound, the Tmax ([2]; 100 mg oral) was 5 h, the half-life ([2]; 100 mg oral) was 54.2 h and the Vd/F ([2]; 100 mg oral) was 1710 L. For the same compound, the AUC(0-inf) ([2]; 300 mg oral) was 25200 ng·h/mL, the AUC(0-t) ([2]; 300 mg oral) was 23100 ng·h/mL and the Cmax ([2]; 300 mg oral) was 747 ng/mL. It also gave a Tmax ([2]; 300 mg oral) of 5 h, a half-life ([2]; 300 mg oral) of 48.1 h and a Vd/F ([2]; 300 mg oral) of 850 L. It also gave an AUC(0-inf) ([2]; 450 mg oral) of 43700 ng·h/mL, an AUC(0-t) ([2]; 450 mg oral) of 36600 ng·h/mL and a Cmax ([2]; 450 mg oral) of 1130 ng/mL. It also gave a Tmax ([2]; 450 mg oral) of 5.76 h, a half-life ([2]; 450 mg oral) of 59.7 h and a Vd/F ([2]; 450 mg oral) of 881 L. The “Plasma exposure (Cmax and AUC) versus dose” value ([2]; oral 10-450 mg, humans) was “increased super-proportionally with dose” and the “Time at which maximum plasma levels are reached post-dose” value ([2]; oral administration, humans) was “approximately 5 hours”.
